Results on eleven compounds are retold here after patent US5650428A, “Arylsulfonamide derivative and pharmaceutical compositions and use thereof” (NKK Corporation, priority 1993, dated 1997).

In assay [1] the target is T1, thromboxane A2 (TxA2) receptor (Cavia porcellus, UniProt A0A286Y4I8).
T1 construct: to obtain washed platelets; from tissue; host or cells: washed platelets of male Hartley guinea pigs
T1 sequence (A0A286Y4I8 1-347): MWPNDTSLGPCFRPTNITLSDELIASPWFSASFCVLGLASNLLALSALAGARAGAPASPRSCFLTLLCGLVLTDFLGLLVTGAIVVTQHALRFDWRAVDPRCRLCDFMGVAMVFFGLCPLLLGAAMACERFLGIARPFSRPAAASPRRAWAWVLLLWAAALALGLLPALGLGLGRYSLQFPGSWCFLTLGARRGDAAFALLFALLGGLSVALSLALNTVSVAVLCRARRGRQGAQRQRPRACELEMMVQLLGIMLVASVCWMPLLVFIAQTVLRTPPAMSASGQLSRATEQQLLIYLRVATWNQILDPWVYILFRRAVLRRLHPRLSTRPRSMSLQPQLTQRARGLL
The assay is described as follows: TxA2 antagonist action by binding assay. Particulars: washed guinea pig platelets, 1 nM [3H]-SQ29,548, 45 minutes at 25° C. In a few lines:
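Washed platelets from male Hartley guinea pigs, 4×10^8 cells/ml, were incubated with test compound and a labelled ligand for 45 minutes at 25 °C. Bound radioactivity was collected by GF/B filtration and scintillation counting; IC50 came from binding/control-binding ratio.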

The target of assay [2] is T2, isolated rat artery (thoracic aorta) (Rattus norvegicus, UniProt P34978).
T2 construct: the thoracic aorta was quickly removed; from tissue; host or cells: thoracic aorta rings of male Wistar rats, endothelium 'gently cleaned'
T2 sequence (P34978 1-341): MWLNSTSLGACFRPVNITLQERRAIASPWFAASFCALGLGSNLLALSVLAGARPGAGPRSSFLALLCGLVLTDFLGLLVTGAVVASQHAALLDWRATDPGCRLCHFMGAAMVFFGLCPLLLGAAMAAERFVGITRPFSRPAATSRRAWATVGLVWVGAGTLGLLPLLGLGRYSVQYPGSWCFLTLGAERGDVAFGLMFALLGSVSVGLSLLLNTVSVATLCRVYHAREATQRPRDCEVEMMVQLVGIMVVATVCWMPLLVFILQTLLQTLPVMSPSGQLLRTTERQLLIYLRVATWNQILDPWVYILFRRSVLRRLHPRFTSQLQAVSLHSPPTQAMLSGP
Briefly: Inhibitory activity of vasoconstriction of isolated rat artery. It is filed as cell-based. The conditions noted are these: pA2; rat thoracic aorta ring preparation, 37° C.; read-out: B: Inhibitory activity of vasoconstriction (rat artery) (pA2) (converted). As for the experimental part: (2) Inhibitory Activity of Vasoconstriction of Isolated Rat Artery
Rats (Wistar; male; body weight=250-300 g) were stunned by a blow to the head and exsanguinated. Then, the thoracic aorta was quickly removed, and the connective tissue and the endothelium were gently cleaned and then ring preparation was cut. The preparations were suspended in a 25 ml organ bath which was maintained at 37° C. under an aeration of 95% O2 -5% CO2. An initial tension of 1.5 g was applied and preincubation was performed for 60 minutes. The organ bath was filled with Krebs-Henselait solution (NaCl=118, KCl=4.7, CaCl2 2.55, MgSO4 =1.18, KH2 PO4 =1.18, NaHCO3 =24.88, glucose=11.1). The constriction of the samples was ionotropicaly measured using an isometric transducer (UL-10GR, Minebea) and an amplifier (6M92, NEC SANEI) and recorded by a recticorder (RECTI-HORIZ-8K, NEC SANEI).

For a further assay, the system named is rat platelet. The assay is described as follows: Inhibitory activity of aggregation in rat platelet. The assay is classed as cell-based. The conditions noted are these: rat platelet rich plasma, arachidonic acid (final concentration 0.5 mM) as inducer; read-out: C: Inhibitory activity of aggregation in rat platelet (IC50; μM). Put shortly:
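Platelet-rich plasma was prepared from citrated (0.38% final) rat abdominal arterial blood and preincubated 1 min at 37°C. Compound was added 2 min before arachidonic acid (0.5 mM final). Light transmission change was recorded for 5 min.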

What is called IC50 is the concentration that inhibits the measured activity by half.

For `O=C(O)c1ccc(NC(=O)C(COC2CCCCO2)NS(=O)(=O)c2ccc(Cl)cc2)cc1` (racemic) [Example 40, (RS)-N-(4-carboxyphenyl)-2-(4-chlorobenzenesulfonylamino)-3-(tetrahydropyran-2-yloxy)propanamide], the IC50 in assay [1] was determined as 0.5 µM; in the assay on rat platelet, 0.52 µM. The Kb in assay [2] was 28.8 nM.

For `O=C(O)Cc1ccc(NC(=O)C(COC2CCCCO2)NS(=O)(=O)c2ccc(Cl)cc2)cc1` (racemic) [Example 41, (RS)-N-(4-(carboxymethyl)phenyl)-2-(4-chlorobenzenesulfonylamino)-3-(tetrahydropyran-2-yloxy)propanamide], the concentration for half-maximal inhibition (IC50) turned out to be 0.057 µM in assay [1] and 0.18 µM in the assay on rat platelet. Also, the Kb in assay [2] is 6.92 nM.

With `O=C(O)CCc1ccc(NC(=O)C(COC2CCCCO2)NS(=O)(=O)c2ccc(Cl)cc2)cc1` (racemic) [Example 42, (RS)-N-(4-(2-carboxyethyl)phenyl)-2-(4-chlorobenzenesulfonylamino)-3-(tetrahydropyran-2-yloxy)propanamide], the half-maximal inhibitory concentration (IC50) in assay [1] was determined as 0.088 µM; in the assay on rat platelet it was 0.54 µM. Besides, in assay [2], the Kb was 12.9 nM.

As for `O=C(O)c1cccc(NC(=O)C(COC2CCCCO2)NS(=O)(=O)c2ccc(Cl)cc2)c1` (racemic) [Example 44, (RS)-N-(3-carboxyphenyl)-2-(4-chlorobenzenesulfonylamino)-3-(tetrahydropyran-2-yloxy) propanamide], the results for the half-inhibitory concentration (IC50) (in assay [1]; in the assay on rat platelet) were 0.4 µM and 0.3 µM, respectively. Further, the Kb in assay [2] was 32.4 nM.

As for `O=C(O)Cc1ccc(NC(=O)C(COC2CCCCO2)NS(=O)(=O)c2ccc(Br)cc2)cc1` (racemic) [Example 54, (RS)-2-(4-bromobenzenesulfonylamino)-N-(4-(carboxymethyl)phenyl)-3-(tetrahydropyran-2-yloxy)propanamide], the 50% inhibitory concentration (IC50) was found to be 0.033 µM in assay [1] and 0.17 µM in the assay on rat platelet. Moreover, the Kb in assay [2] was 5.89 nM.

As for `O=C(O)Cc1ccc(NC(=O)C(COC2CCCCO2)NS(=O)(=O)c2ccc(I)cc2)cc1` (racemic) [Example 55, (RS)-N-(4-(carboxymethyl)phenyl)-2-(4-iodobenzenesulfonylamino)-3-(tetrahydropyran-2-yloxy)propanamide], the results for the IC50 (in assay [1]; with rat platelet) were 0.016 µM and 0.53 µM, respectively. The Kb in assay [2] is 3.8 nM.

For the compound `O=C(O)COc1ccc(CCNS(=O)(=O)c2ccc(Cl)cc2)cc1` [Control Compound, 4-[2-(4-chlorobenzenesulfonylamino)ethyl]-phenoxy acetic acid, reference compound], the results for the IC50 (in assay [1]; with rat platelet) were 2 µM and 1.7 µM, respectively. Further, the Kb in assay [2] is 126 nM.

In turn, `O=C(O)c1ccc(NC(=O)[C@H](COC2CCCCO2)NS(=O)(=O)c2ccc(Cl)cc2)cc1` (stereo partly drawn) [Example 39, (S)-N-(4-carboxyphenyl)-2-(4-chlorobenzenesulfonylamino)-3-(tetrahydropyran-2-yloxy)propanamide] displayed a 50% inhibitory concentration (IC50) in assay [1] of 0.2 µM. Moreover, the Kb in assay [2] is 12.6 nM.

With `O=C(O)c1cccc(NC(=O)[C@H](COC2CCCCO2)NS(=O)(=O)c2ccc(Cl)cc2)c1` (stereo partly drawn) [Example 43, (S)-N-(3-carboxyphenyl)-2-(4-chlorobenzenesulfonylamino)-3-(tetrahydropyran-2-yloxy)propanamide], the Kb in assay [2] is 41.7 nM.

As for `O=C(O)CCc1ccc(NC(=O)[C@H](Cc2ccccc2)NS(=O)(=O)c2ccc(Br)cc2)cc1` [Example 254, (S)-2-(4-bromobenzenesulfonylamino)-N-(4-(2-carboxyethyl)phenyl)-3-phenylpropanamide], the IC50 was determined as 0.005 µM in assay [1] and 0.051 µM with rat platelet.

For the compound `O=C(O)c1cccc(NC(=O)[C@H](Cc2ccccc2)NS(=O)(=O)c2ccc(Br)cc2)c1` [Example 257, (S)-2-(4-bromobenzenesulfonylamino)-N-(3-carboxyphenyl)-3-phenylpropanamide], the IC50 was 0.0087 µM in assay [1] and 0.17 µM with rat platelet.
